# Laboratory results taken from patent US4130709A, “Pleuromutilin glycoside derivatives” (Eli Lilly and Company, priority 1977, dated 1978).
# Experiments:
# Assay type in all cases: cell-based
# [1] = system: Staphylococcus aureus (H-Heatley) NRRL B-314; assay: in vitro turbidometric assay (Autoturb Microbiological Assay System) against Staphylococcus aureus; conditions: nutrient broth pH 7, approximately 4 hours at 37° C., A-40104 factor A as standard
# Procedure: The compounds are conveniently tested against a typical gram-positive organism, Staphylococcus aureus, using a turbidometric assay on a semi-automated system (Autoturb Microbiological Assay System, Elanco) described by N. R. Kuzel and F. W. Kavanagh in J. Pharmaceut. Sci, 60 (5), 764 and 767 (1971). In testing these compounds, the following parameters were used: Staphylococcus aureus (H-Heatley) NRRL B-314 in a nutrient broth medium (pH 7), incubated for approximately 4 hours at 37° C. Test samples and A-40104 factor A, which is used as a standard, were dissolved in water. The standard was presented to the Autoturb carrousel at concentrations of 1.25, 2.50, 3.75, 5.00 and 6.25 mcg/ml. Test compounds were diluted to contain approximately 2.5 to 5.0 mcg of activity per ml, as presented to the carrousel. The units of activity of some of the typical compounds of this invention (R^2 =H in group tested) in this in vitro assay are summarized in Table I
# [2] = system: Bacteroides fragilis 1877; assay: standard agar-dilution test, anaerobic bacteria; conditions: Bacteroides fragilis 1877; 24-hour incubation; read-out: MIC
# [3] = system: Peptococcus asaccharolyticus; assay: standard agar-dilution test, anaerobic bacteria; conditions: Peptoniphilus asaccharolyticus, 24-hour incubation
# [4] = system: Bacteroides fragilis 1936B; assay: standard agar-dilution test, anaerobic bacteria; conditions: Bacteroides fragilis 1936B; 24-hour incubation; read-out: MIC
# Actinomyces israelii = assay: standard agar-dilution test, anaerobic bacteria; conditions: 24-hour incubation
# Clostridium perfringens = assay: microbe, parasite or virus in culture; conditions: 24 h
# [5] = system: Bacteroides melaninogenicus 1856/28; assay: standard agar-dilution test, anaerobic bacteria; conditions: Prevotella intermedia; Bacteroides melaninogenicus 1856/28; 24-hour incubation; read-out: MIC
# Peptococcus prevoti = assay: standard agar-dilution test, anaerobic bacteria; conditions: Peptococcus prevoti; 24-hour incubation; read-out: MIC
# Bacteroides corrodens = assay: standard agar-dilution test, anaerobic bacteria; conditions: Eikenella corrodens; Bacteroides corrodens; 24-hour incubation; read-out: MIC
# Bacteroides fragilis 111 = assay: standard agar-dilution test, anaerobic bacteria; conditions: Bacteroides fragilis 111; 24-hour incubation; read-out: MIC
# [6] = system: Peptostreptococcus anaerobius; assay: standard agar-dilution test, anaerobic bacteria; conditions: 24-hour incubation
# [7] = system: Peptostreptococcus intermedius; assay: standard agar-dilution test, anaerobic bacteria; conditions: Peptostreptococcus intermedius; 24-hour incubation; read-out: MIC
# [8] = system: Bacteroides melaninogenicus 2736; assay: standard agar-dilution test, anaerobic bacteria; conditions: Bacteroides melaninogenicus 2736; 24-hour incubation; read-out: MIC
# [9] = system: Fusobacterium necrophorum; assay: standard agar-dilution test, anaerobic bacteria; conditions: 24-hour incubation, read-out: MIC
# [10] = system: Bacteroides thetaiotaomicron; assay: standard agar-dilution test, anaerobic bacteria; conditions: 24-hour incubation
# Procedure: (§1) Table IV summarizes the activity of typical compounds of this invention, as determined by the standard agar-dilution test.
# (§2) *Endpoint read after 24-hour incubation
# Clostridium septicum = assay: standard agar-dilution test, anaerobic bacteria; conditions: 24-hour incubation
# Procedure: as §1, §2
# Bacteroides vulgatis = assay: standard agar-dilution test, anaerobic bacteria; conditions: Bacteroides vulgatis; 24-hour incubation; read-out: MIC
# Eubacterium aerofaciens = assay: standard agar-dilution test, anaerobic bacteria; conditions: Collinsella aerofaciens, 24 h
# Fusobacterium symbiosum = assay: standard agar-dilution test, anaerobic bacteria; conditions: Fusobacterium, 24 h
# Spiroplasma citri = assay: in vitro inhibition of Spiroplasma citri measured by a color reaction; design: key to Activity (color reaction): Red (R) includes complete inhibition; red-orange (RO) indicates partial inhibition; yellow (Y) indicates no inhibition
# Procedure: In another important aspect, the compounds of this invention are active against Spiroplasmas. Spiroplasma citri is the causative agent of citrus-stubborn disease; another Spiroplasma, corn-stunt Spiroplasma, affects the growth of corn. Table VII summarizes the in vitro activity of representative compounds of the present invention (R^2 =H in this group) against Spiroplasma citri. In this test, inhibition of S. citri is measured by a color reaction. Red (R) includes complete inhibition; red-orange (RO) indicates partial inhibition; and yellow (Y) indicates no inhibition.
structure (smiles),measurement,setting,value
"C=C[C@]1(C)C[C@@H](OC(=O)CS[C@H]2OC[C@@H](O)[C@@H](O)[C@H]2O)[C@]2(C)[C@H](C)CC[C@]3(CCC(=O)[C@H]32)[C@@H](C)[C@@H]1O [Example 37, 14-Deoxy-14-[(α-D-ribopyranosyl)thioacetoxy]-mutilin]",Units of Activity,[1],350 µg/mg
CC[C@]1(C)C[C@@H](OC(=O)CS[C@@H]2O[C@H](COC(C)=O)[C@@H](O[C@H]3O[C@H](COC(C)=O)[C@@H](OC(C)=O)[C@H](OC(C)=O)[C@H]3OC(C)=O)[C@H](OC(C)=O)[C@H]2OC(C)=O)[C@]2(C)[C@H](C)CC[C@]3(CCC(=O)[C@H]32)[C@@H](C)[C@@H]1O [Example 53],Units of Activity,[1],28 µg/mg
"CC[C@]1(C)C[C@@H](OC(=O)CO[C@H]2O[C@H](CO)[C@@H](O)[C@H](O)[C@H]2O)[C@]2(C)[C@H](C)CC[C@]3(CCC(=O)[C@H]32)[C@@H](C)[C@@H]1O [Example 2, 14-deoxy-14-[(α-D-glucopyranosyl)oxyacetoxy]-19,20-dihydromutilin]",Units of Activity,[1],< 100 µg/mg
"C=C[C@]1(C)C[C@@H](OC(=O)CS[C@@H]2OC[C@@H](O)[C@@H](O)[C@@H]2O)[C@]2(C)[C@H](C)CC[C@]3(CCC(=O)[C@H]32)[C@@H](C)[C@@H]1O [Example 22, 14-Deoxy-14-[(β-D-arabinopyranosyl)thioacetoxyl]mutilin]",Units of Activity,[1],380 µg/mg
CC[C@]1(C)C[C@@H](OC(=O)CS[C@@H]2OC[C@@H](OC(C)=O)[C@@H](OC(C)=O)[C@H]2OC(C)=O)[C@]2(C)[C@H](C)CC[C@]3(CCC(=O)[C@H]32)[C@@H](C)[C@@H]1O,Units of Activity,[1],480 to 500 µg/mg
"CC[C@]1(C)C[C@@H](OC(=O)CS[C@@H]2O[C@H](COC(C)=O)[C@@H](OC(C)=O)[C@H](OC(C)=O)[C@H]2OC(C)=O)[C@]2(C)[C@H](C)CC[C@]3(CCC(=O)[C@H]32)[C@@H](C)[C@@H]1O [Compound 4, 14-deoxy-14-[(2,3,4,6-tetra-O-acetyl-β-D-glucopyranosyl)thioacetoxy]-19,20-dihydromutilin]",MIC,[2],32 µg/mL
same,Units of Activity,[1],203 to 220 µg/mg
same,MIC,[3],≤ 0.5 µg/mL
same,MIC,[4],64 µg/mL
same,MIC,Actinomyces israelii,≤ 0.5 µg/mL
same,MIC,Clostridium perfringens,> 128 µg/mL
same,MIC,[5],8 µg/mL
same,MIC,Peptococcus prevoti,8 µg/mL
same,MIC,Bacteroides corrodens,32 µg/mL
same,MIC,Bacteroides fragilis 111,32 µg/mL
same,MIC,[6],1 µg/mL
same,MIC,[7],2 µg/mL
same,MIC,[8],4 µg/mL
same,MIC,[9],≤ 0.5 µg/mL
same,MIC,[10],64 µg/mL
same,MIC,Clostridium septicum,4 µg/mL
same,MIC,Bacteroides vulgatis,32 µg/mL
same,MIC,Eubacterium aerofaciens,> 128 µg/mL
same,MIC,Fusobacterium symbiosum,128 µg/mL
same,Activity (color reaction),Spiroplasma citri; 0.01 ppm,Y
same,Activity (color reaction),Spiroplasma citri; 0.05 ppm,R
same,Activity (color reaction),Spiroplasma citri; 0.1 ppm,R
same,Activity (color reaction),Spiroplasma citri; 1.0 ppm,R
"C=C[C@]1(C)C[C@@H](OC(=O)CS[C@@H]2O[C@H](COC(C)=O)[C@@H](O[C@H]3O[C@H](COC(C)=O)[C@@H](OC(C)=O)[C@H](OC(C)=O)[C@H]3OC(C)=O)[C@H](OC(C)=O)[C@H]2OC(C)=O)[C@]2(C)[C@H](C)CC[C@]3(CCC(=O)[C@H]32)[C@@H](C)[C@@H]1O [Example 52, 14-Deoxy-14-[(4-O-(2,3,4,6-tetra-O-acetyl-α-D-glucopyranosyl)-2,3,6-tri-O-acetyl-β-D-glucopyranosyl)thioacetoxy]mutilin]",Units of Activity,[1],40 µg/mg
"C=C[C@]1(C)C[C@@H](OC(=O)CO[C@@H]2OC[C@@H](O)[C@H](O)[C@H]2O)[C@]2(C)[C@H](C)CC[C@]3(CCC(=O)[C@H]32)[C@@H](C)[C@@H]1O [A-40104 factor A, reference compound]",Units of Activity,[1],446 to 452 µg/mg
"C=C[C@]1(C)C[C@@H](OC(=O)CS[C@@H]2OC[C@@H](O)[C@@H](O)[C@H]2O)[C@]2(C)[C@H](C)CC[C@]3(CCC(=O)[C@H]32)[C@@H](C)[C@@H]1O [Example 38, 14-Deoxy-14-[(β-D-ribopyranosyl)thioacetoxy]-mutilin]",Units of Activity,[1],1070 µg/mg
"CC[C@]1(C)C[C@@H](OC(=O)CS[C@H]2OC[C@@H](O)[C@@H](O)[C@H]2O)[C@]2(C)[C@H](C)CC[C@]3(CCC(=O)[C@H]32)[C@@H](C)[C@@H]1O [Example 39, 14-Deoxy-14-[(α-D-ribopyranosyl)thioacetoxy]-19,20-dihydromutilin]",Units of Activity,[1],430 to 433 µg/mg
"CC[C@]1(C)C[C@@H](OC(=O)CS[C@@H]2OC[C@@H](OC(C)=O)[C@@H](OC(C)=O)[C@@H]2OC(C)=O)[C@]2(C)[C@H](C)CC[C@]3(CCC(=O)[C@H]32)[C@@H](C)[C@@H]1O [Example 21, 14-Deoxy-14-[(2,3,4-tri-O-acetyl-β-D-arabinopyranosyl)thioacetoxy]-19,20-dihydromutilin]",Units of Activity,[1],380 µg/mg
"CC[C@]1(C)C[C@@H](OC(=O)CS[C@@H]2OC[C@@H](O)[C@@H](O)[C@H]2O)[C@]2(C)[C@H](C)CC[C@]3(CCC(=O)[C@H]32)[C@@H](C)[C@@H]1O [Example 40, 14-Deoxy-14-[(β-D-ribopyranosyl)thioacetoxy]-19,20-dihydromutilin]",Units of Activity,[1],1500 µg/mg
"C=C[C@]1(C)C[C@@H](OC(=O)CS[C@@H]2OC[C@@H](OC(C)=O)[C@@H](OC(C)=O)[C@@H]2OC(C)=O)[C@]2(C)[C@H](C)CC[C@]3(CCC(=O)[C@H]32)[C@@H](C)[C@@H]1O [Example 20, 14-Deoxy-14-[(2,3,4-tri-O-acetyl-β-D-arabinopyranosyl)thioacetoxy]mutilin]",Units of Activity,[1],430 µg/mg
"C=C[C@]1(C)C[C@@H](OC(=O)CS[C@@H]2O[C@H](COC(C)=O)[C@@H](OC(C)=O)[C@H]2OC(C)=O)[C@]2(C)[C@H](C)CC[C@]3(CCC(=O)[C@H]32)[C@@H](C)[C@@H]1O [Example 41 β-anomer, 14-deoxy-14-[(2,3,5-tri-O-acetyl-β-D-ribofuranosyl)thioacetoxy]mutilin]",Units of Activity,[1],about 450 mcg/mg
"C=C[C@]1(C)C[C@@H](OC(=O)CS[C@H]2O[C@H](COC(C)=O)[C@@H](OC(C)=O)[C@H]2OC(C)=O)[C@]2(C)[C@H](C)CC[C@]3(CCC(=O)[C@H]32)[C@@H](C)[C@@H]1O [Example 41 α-anomer, 14-deoxy-14-[(2,3,5-tri-O-acetyl-α-D-ribofuranosyl)thioacetoxy]mutilin]",Units of Activity,[1],about 200 mcg/mg
"CC[C@]1(C)C[C@@H](OC(=O)CS[C@@H]2OC[C@@H](O)[C@@H](O)[C@@H]2O)[C@]2(C)[C@H](C)CC[C@]3(CCC(=O)[C@H]32)[C@@H](C)[C@@H]1O [Example 23, 14-deoxy-14-[(β-D-arabinopyranosyl)thioacetoxy]-19,20-dihydromutilin]",Units of Activity,[1],420 µg/mg
"C=C[C@]1(C)C[C@@H](OC(=O)CS[C@H]2OC[C@@H](OC(C)=O)[C@@H](OC(C)=O)[C@H]2OC(C)=O)[C@]2(C)[C@H](C)CC[C@]3(CCC(=O)[C@H]32)[C@@H](C)[C@@H]1O [Example 36 α-anomer, 14-deoxy-14-[(2,3,4-tri-O-acetyl-α-D-ribopyranosyl)thioacetoxy]mutilin]",Units of Activity,[1],50 µg/mg
